Experimental data from patent publication US5731334A, “Method for treating cancer using taxoid onium salt prodrugs” (priority 1995, dated 1998).
pIC50: −log10 of the molar value.

Tests used:
[1] = system: A-549 lung carcinoma cells; experiment: XTT dye binding cytotoxicity assay, A-549; format: cell-based; conditions: Homo sapiens, A549; A-549, lung carcinoma; 72 h; read-out: IC50
Method: (§1) All cell lines described herein were obtained from the ATCC and maintained in media formulations as recommended by the supplier. The cell lines were tested for mycoplasma contamination prior to incubation at 37° C. in 5% carbon dioxide. Normal human dermal fibroblasts, peripheral blood lymphoblasts and mammary epithelial cells were obtained from Clonogenic Cor., San Diego, Calif. and were maintained under the above incubation conditions in special media provided by the supplier.
(§2) Antiproliferative activities of the onium salts were determined using the XTT dye binding assay. Cells were harvested with trypsin/EDTA (Irvine Scientific), washed, resuspended in the appropriate medium, and counted in a hemocytometer using Trypan Blue to determine viability. Then 10^4 cells/well were added to 96 well microtiter plates and incubated for 24 hours before addition of drug at concentrations in the range of 10^-4 to 10^-13 molar by direct addition from DMSO solutions. After 72 hours, XTT binding dye was added and incubation was continued for 4 hours. The inhibition of cell proliferation was quantified using a Molecular Devices Microplate Reader. The absorbance of XTT was measured at […]. The concentration of drug which inhibited growth of cells by 50% was calculated from duplicated determinations.

[2] = system: PC-3 prostate carcinoma cells; experiment: XTT dye binding cytotoxicity assay, PC-3; format: cell-based; conditions: Homo sapiens, 72 h
Method: as §1, §2

[3] = system: 786-0 renal cell carcinoma cells; experiment: XTT dye binding cytotoxicity assay, 786-0; format: cell-based; conditions: Homo sapiens; 786-0, renal cell carcinoma; 72 h; read-out: IC50
Method: as §1, §2

tubulin = experiment: Tubulin polymerization-depolymerization (microtubule assembly-disassembly) assay; format: biochemical, calf; conditions: CaCl2, 10^-6 M drug, 37° C., in words
[4] = system: HT-29 colon carcinoma cells; experiment: XTT dye binding cytotoxicity assay, HT-29; format: cell-based; conditions: Homo sapiens; HT-29, colon carcinoma; 72 h; read-out: IC50
Method: as §1, §2

NHDF dermal fibroblast = experiment: XTT dye binding cytotoxicity assay, NHDF; format: cell-based; conditions: Homo sapiens, dermal fibroblast (untransformed), 72 h, read-out: IC50
Method: as §1, §2

[5] = Toxicity and survival in vivo (tumor bearing nude mice); conditions: for Toxicity: Table II, in vivo; for % survival: at end of experiments
[6] = system: SIHA squamous carcinoma cells; experiment: XTT dye binding cytotoxicity assay, SIHA; format: cell-based; conditions: Homo sapiens; SIHA, squamous carcinoma; 72 h; read-out: IC50
Method: as §1, §2

[7] = system: RPMI-7666 blood lymphoblasts; experiment: XTT dye binding cytotoxicity assay, RPMI-7666; format: cell-based; conditions: Homo sapiens; RPMI-7666, blood lymphoblasts (untransformed); 72 h; read-out: IC50
Method: as §1, §2

SK-Mel-28 melanoma cells = experiment: XTT dye binding cytotoxicity assay, SK-Mel-28; format: cell-based; conditions: Homo sapiens; SK-Mel-28, melanoma; 72 h; read-out: IC50
Method: as §1, §2

[8] = system: CHO Chinese hamster ovary cells; experiment: XTT dye binding cytotoxicity assay, CHO; format: cell-based; conditions: Cricetulus griseus; CHO, Chinese hamster ovary (untransformed); 72 h; read-out: IC50
Method: as §1, §2

L-1210 leukemia cells = experiment: XTT dye binding cytotoxicity assay, L-1210; format: cell-based, mouse; conditions: L1210; L-1210, mouse leukemia; 72 h; read-out: IC50
Method: as §1, §2

[9] = system: SK-N-SH neuroblastoma cells; experiment: XTT dye binding cytotoxicity assay, SK-N-SH; format: cell-based; conditions: Homo sapiens, neuroblastoma, 72 h, read-out: IC50
Method: as §1, §2

U-2511 CNS cancer cells = experiment: XTT dye binding cytotoxicity assay, U-2511; format: cell-based; conditions: Homo sapiens; U-2511, CNS cancer; 72 h; read-out: IC50
Method: as §1, §2

[10] = system: HL-60 promyelocytic leukemia cells; experiment: XTT dye binding cytotoxicity assay, HL-60; format: cell-based; conditions: Homo sapiens; HL-60, promyelocytic leukemia; 72 h; read-out: IC50
Method: as §1, §2

[11] = system: UCLA-P3 lung carcinoma cells; experiment: XTT dye binding cytotoxicity assay, UCLA-P3; format: cell-based; conditions: Homo sapiens, UCLA P-3; UCLA-P3, lung carcinoma; 72 h; read-out: IC50
Method: as §1, §2

[12] = system: Molt-4 T-cell leukemia cells; experiment: XTT dye binding cytotoxicity assay, Molt-4; format: cell-based; conditions: Homo sapiens; Molt-4, T-cell leukemia; 72 h; read-out: IC50
Method: as §1, §2

[13] = system: OVCAR-3 ovarian carcinoma cells; experiment: XTT dye binding cytotoxicity assay, OVCAR-3; format: cell-based; conditions: Homo sapiens; OVCAR-3, ovarian carcinoma; 72 h; read-out: IC50
Method: as §1, §2

[14] = system: Capan 1 pancreas cancer cells; experiment: XTT dye binding cytotoxicity assay, Capan 1; format: cell-based; conditions: Homo sapiens; Capan 1, pancreas cancer; 72 h; read-out: IC50
Method: as §1, §2

[15] = system: BT-549 breast carcinoma cells; experiment: XTT dye binding cytotoxicity assay, BT-549; format: cell-based; conditions: Homo sapiens; BT-549, breast carcinoma; 72 h; read-out: IC50
Method: as §1, §2

in vitro = conditions: human, plasma
[16] = system: HMEC mammary epithelial cells; experiment: XTT dye binding cytotoxicity assay, HMEC; format: cell-based; conditions: Homo sapiens, mammary epithelial cells (untransformed), 72 h, read-out: IC50
Method: as §1, §2

[17] = system: M-24 metastatic melanoma cells; experiment: XTT dye binding cytotoxicity assay, M-24; format: cell-based; conditions: Homo sapiens, M24; M-24, melanoma-metastatic; 72 h; read-out: IC50
Method: as §1, §2

[18] = system: A549 lung adenocarcinoma tumor xenograft; experiment: Human lung adenocarcinoma A549 xenograft in nude mice; conditions: 1.0 mM, 400 μL i.p. days 1, 3, 5, 7, 9, 11
Method: (§3) Athymic nude mice were purchased from Harlan-Sprague-Dawley. The animals were housed in microisolated cases under positive air pressure and all manipulations and drug treatments were performed in a laminar flow cabinet. Tumor cells were grown under the above tissue culture conditions. Cell suspensions in RPMI medium were injected S./C. Treatment was started one day after inoculation by i.p. injection of 400 μl drug solutions. Tumors were measured 3 times weekly in two dimensions, using calipers and tumor volume as calculated using the formula (V=w^2 ×L×(3.142).
The tumor model was generated from A549 cell line, an ATTC that was maintained under standard cell proliferation conditions (37° C., 5% carbon dioxide in sterile air). Each cohort was comprised of six randomly chosen female athymic nude mice, for a total population size of twenty four mice. Hemocytometer counted cells, suspended in Hanks mediun (Gibco, Grand Island N.Y.) were implated S.C. (10^6 cells in 0.4 mL per mouse). Solid tumor growth was measured on each third day. Equimolar amounts of the test compounds (1.0 mM, 400 μL) were injected i.p. on days 1, 3, 5, 7, 9, and 11 using the following media:
(Δ): Control, saline in 5× distilled water (5 DW)
(.smallcircle.): Taxol (18.0 mg/kg of animal weight or approximately 1,260 mg/m^2) suspended in Cremaphor/D5W […]

tumor cell lines = experiment: Cytotoxicity, summary over tumor cell lines (XTT); format: cell-based, human and murine
Method: Antiproliferative activities of the onium salts were determined using the XTT dye binding assay. Cells were harvested with trypsin/EDTA (Irvine Scientific), washed, resuspended in the appropriate medium, and counted in a hemocytometer using Trypan Blue to determine viability. […] After 72 hours, XTT binding dye was added and incubation was continued for 4 hours. The inhibition of cell proliferation was quantified using a Molecular Devices Microplate Reader. […] The concentration of drug which inhibited growth of cells by 50% was calculated from duplicated determinations.

human tumor xenografts = experiment: In vivo antitumor effect (human tumor xenografts in nude mice)
[19] = Plasma stability and prodrug reversion (ethyl acetate extraction, HPLC); conditions: human, plasma
[20] = Comparative toxicities (lethality) in mice
[21] = Stability in water, assay medium and storage solution; format: physicochemical
Description: used and differing ultraviolet absorption maxima between the prodrug and the drug, the stability was easily assayed using UV detection. In all the ensuing studies, the only degradation products detected were the taxoids and the pyridinone that results from the hydrolysis of the onium salts. In water, these compounds show surprising stability for up to weeks depending upon the storage conditions. […] The fraction of ethyl acetated extractable material was between 18 and 23% for all onium salts and 95% for the present compounds.
FIG. 2 illustrates the results of GTP induced polymerization and calcium chloride induced depolymerization of tubulin in the presence of taxol and the 2'- and 7-MPA substituted derivatives.

[22] = system: PC-3 prostate carcinoma tumor xenograft; experiment: PC-3 prostate tumor xenograft in nude mice
Method: as §3
The tumor model was generated from an ATTC PC-3 prostate carcinoma cell line that was maintained under standard cell proliferation conditions, viz. 37° C., 5% carbon dioxide in sterile air. Each cohort was comprised of eight randomly chosen female athymic nude mice, for a total population size of twenty four. Hemocytometer counted cells, suspended in Hanks mediun (Gibco, Grand Island N.Y.) were implanted S.C. (10^6 cells in 0.4 mL per mouse). Solid tumor growth was measured on each third day. Equimolar amounts of the test compounds (1.0 mM, 400 μL) were injected i.p. on days 1, 3, 5, 7, 9, and 11 using the following media:
(.smallcircle.): Control, 5% dextrose in 5× distilled water (5 DW)
(Δ): Taxol (18.0 mg/kg of animal weight or approximately 1.260 mg/m^2) suspended in Cremaphor/D5W
Inferences about efficacy were drawn by ANOVA followed by protected t-test. […] Data shown as mean value with standard error.

## CC(=O)O[C@H]1C(=O)[C@@]2(C)[C@H]([C@H](OC(=O)c3ccsc3)[C@]3(O)C[C@H](OC(=O)[C@H](Oc4cccc[n+]4C)[C@@H](NC(=O)c4ccccc4)c4ccccc4)C(C)=C1C3(C)C)[C@]1(OC(C)=O)CO[C@@H]1C[C@@H]2O [Compound 4]
[1]
  pIC50: 8.63
[2]
  pIC50: 8.94
[3]
  pIC50: 7.94
tubulin
  inhibition of calcium chloride induced depolymerization of microtubules: behaved in this assay similar to the C-2'-MPA isomer of taxol (2)
[4]
  pIC50: 9.00
NHDF dermal fibroblast
  pIC50: 6.18
[5]
  Toxicity: low
  % survival: 100%
[6]
  pIC50: 8.12
[7]
  pIC50: 6.39
SK-Mel-28 melanoma cells
  pIC50: 6.96
[8]
  pIC50: 6.09
L-1210 leukemia cells
  pIC50: 8.92
[9]
  pIC50: 8.38
U-2511 CNS cancer cells
  pIC50: 7.50
[10]
  pIC50: 9.92
[11]
  pIC50: 8.73
[12]
  pIC50: 10.18
[13]
  pIC50: 9.07
[14]
  pIC50: 9.46
[15]
  pIC50: 9.96
In vitro
  half-life: 14 min
  recovery: 23%
[16]
  pIC50: 6.66
[17]
  pIC50: 9.27

## CC(=O)O[C@H]1C(=O)[C@@]2(C)[C@H]([C@H](OC(=O)c3ccsc3)[C@]3(O)C[C@H](OC(=O)[C@H](O)[C@@H](NC(=O)c4ccccc4)c4ccccc4)C(C)=C1C3(C)C)[C@]1(OC(C)=O)CO[C@@H]1C[C@@H]2O [C-2-substituted thiophene derivative]
tubulin
  inhibition of calcium chloride induced depolymerization of microtubules: inhibited depolymerization similar to taxol

## CC(=O)O[C@H]1C(=O)[C@@]2(C)[C@H]([C@H](OC(=O)c3ccccc3)[C@]3(O)C[C@H](OC(=O)[C@H](OC(=O)CS(=O)(=O)C(=O)O)[C@@H](NC(=O)c4ccccc4)c4ccccc4)C(C)=C1C3(C)C)[C@]1(OC(C)=O)CO[C@@H]1C[C@@H]2O [Compound 7]
[18]
  tumor growth inhibition, A549: no significant growth inhibition
[5]
  Toxicity: low
  % survival: 75%
Tumor cell lines
  cytotoxicity in words: high cytotoxicity profile
Human tumor xenografts
  in vivo antitumor efficacy in words: completely fails to exhibit any antitumor effects in vivo
[19]
  half-life: 100 min
  recovery: 34%

## CC(=O)O[C@@]12CO[C@@H]1C[C@H](O)[C@@]1(C)C(=O)[C@H](O)C3=C(C)[C@@H](OC(=O)[C@H](Oc4cccc[n+]4C)[C@@H](NC(=O)OC(C)(C)C)c4ccccc4)C[C@@](O)([C@@H](OC(=O)c4ccccc4)[C@H]21)C3(C)C [Compound 6]
[1]
  pIC50: 9.14
[3]
  pIC50: 9.25
[4]
  pIC50: 8.51
NHDF dermal fibroblast
  pIC50: 8.80
[6]
  pIC50: 8.39
[7]
  pIC50: 6.22
SK-Mel-28 melanoma cells
  pIC50: 7.17
[8]
  pIC50: 6.53
L-1210 leukemia cells
  pIC50: 10.72
[9]
  pIC50: 8.13
[20]; mouse, in vivo
  Toxicity: minimal toxicity
  lethality: no lethality
[19]
  half-life: 0.9 min
  recovery: 18%
[21]; 1-2% Tween #80 or Tween #20 with or without ethyl alcohol
  storage stability: stable and may stored without significant loss
U-2511 CNS cancer cells
  pIC50: 9.21
[10]
  pIC50: 9.05
[11]
  pIC50: 7.70
[13]
  pIC50: 7.09
[14]
  pIC50: 9.23
[15]
  pIC50: 10.19
[16]
  pIC50: 7.25

## CC(=O)O[C@H]1C(=O)[C@]2(C)[C@@H](Oc3cccc[n+]3C)C[C@H]3OC[C@@]3(OC(C)=O)[C@H]2[C@H](OC(=O)c2ccccc2)[C@]2(O)C[C@H](OC(=O)[C@H](O)[C@@H](NC(=O)c3ccccc3)c3ccccc3)C(C)=C1C2(C)C [Compound 3]
[1]
  pIC50: 7.37
[2]
  pIC50: 7.15
[3]
  pIC50: 6.34
tubulin
  inhibition of calcium chloride induced depolymerization of microtubules: as effective as taxol in inhibiting calcium induced microtubule disassembly
tubulin; listed as 7-MPA salt
  inhibition of calcium chloride induced depolymerization of microtubules: essentially complete inhibition of depolymerization
tubulin; listed as taxol-7-MPA
  inhibition of calcium chloride induced depolymerization of microtubules: suppressed by taxol and taxol-7-MPA
[4]
  pIC50: 7.45
NHDF dermal fibroblast
  pIC50: 7.07
[5]
  Toxicity: low
  % survival: 100%
[6]
  pIC50: 8.06
[7]
  pIC50: 6.91
SK-Mel-28 melanoma cells
  pIC50: 6.15
Tumor cell lines
  cytotoxicity in words: cytotoxicities comparable to taxol on human tumor cell lines
Human tumor xenografts
  in vivo antitumor efficacy in words: completely failed to inhibit the growth of these tumors in nude mice
[8]
  pIC50: 6.21
L-1210 leukemia cells
  pIC50: 6.75
[9]
  pIC50: 7.71
[19]
  half-life: 180 min
  recovery: 20%
[22]; 1.0 mM, 400 μL i.p., established tumors
  antitumor activity, PC-3: essentially no antitumor activity
[22]; in vivo
  mice surviving treatment, PC-3: all of the mice given either the 2'- or 7-isomers survived
[21]; HPLC analysis
  stability under the assembly-disassembly conditions: completely stable
U-2511 CNS cancer cells
  pIC50: 6.77
[10]
  pIC50: 8.23
[11]
  pIC50: 7.89
[12]
  pIC50: 8.00
[13]
  pIC50: 7.07
[14]
  pIC50: 7.46
[15]
  pIC50: 6.85
[16]
  pIC50: 7.09
[17]
  pIC50: 9.21

## CC(=O)O[C@@]12CO[C@@H]1C[C@H](O)[C@@]1(C)C(=O)[C@H](O)C3=C(C)[C@@H](OC(=O)[C@H](O)[C@@H](NC(=O)OC(C)(C)C)c4ccccc4)C[C@@](O)([C@@H](OC(=O)c4ccccc4)[C@H]21)C3(C)C [Compound 5, N-debenzoyl-N-tert-butoxycarbonyl-10-deacetyl Taxol, reference compound]
[1]
  pIC50: 9.10
[3]
  pIC50: 7.38
[4]
  pIC50: 9.08
NHDF dermal fibroblast
  pIC50: 7.19
[6]
  pIC50: 8.81
[7]
  pIC50: 7.15
SK-Mel-28 melanoma cells
  pIC50: 6.21
[8]
  pIC50: 7.10
L-1210 leukemia cells
  pIC50: 9.23
[9]
  pIC50: 9.19
[20]; conventional formulation, relative to taxol
  50% lethality and toxicities, in words: 50% lethality and toxicities at generally lower dosages as compared to taxol
U-2511 CNS cancer cells
  pIC50: 7.68
[10]
  pIC50: 10.46
[11]
  pIC50: 9.92
[13]
  pIC50: 9.96
[14]
  pIC50: 10.96
[16]
  pIC50: 7.48
[17]
  pIC50: 10.77
